Assay results reported in US7285619B2, “Echinocandin derivatives, their method of preparation and their application as anti-fungal agents” (Aventis Pharma S.A., priority 1997, dated 2007).

Tested on: glucane Synthesis of Candida albicans
Test: Inhibition of the glucane synthesis of Candida albicans (membrane preparation, 14C-UDP glucose incorporation)
Type: biochemical
Conditions: purified Candida albicans membranes, 25° C., 1 hour, result in words
Procedure: Tablets have been prepared containing: • The product of example 14 . . . 150 mg • Excipient q.s.p. . . . 1 g (Detail of the excipient: starch, talc, magnesium stearate). Pharmacological Study A—Inhibition of the glucane Synthesis of Candida albicans.
The membranes of Candida albicans are purified according to the process described by Tang and al Antimicrob. Agents Chemother 35, 99-103, 1991. 22.5 μg of membrane proteins are incubated in a mixture of 2 Mm of 14C-UDP glucose (specific activity=0.34 mCi./mmol, 50 μg of α-amylase, 1 Mm of dithiotreitol (DTT), 1 Mm EDTA, 100 Mm NaF, 7 μM of GTP-γ-S, 1M of sucrose and 5 oMm OF Ttris-HCL (pH 7.8) in a volume of 100 μl. The medium is incubated at 25° C. for 1 hour and the reaction terminated by addition of TCA to a final concentration of 5%. The reaction medium is transferred onto a pre-humidified glass fibre filter. The filter is washed, dried and its radioactivity is counted.
Mulundocandin is used as positive control.
The control of the medium is carried out with the same quantity of DMSO 1%.

Molecule | activity in the test of inhibition of the glucane synthesis of Candida albicans
Trifluoroacetate of 1-[4-[(2-aminoethyl)amino]-N2-(12-methyl-1-oxotetradecyl)-L-ornithine]4-[4-(4-hydroxyphenyl)-L-threonine]-5-L Serine Echinocandin B (Isomer A and Isomer B) [Example 9] | good activity
CCCCCCCCOc1ccc(-c2ccc(C(=O)NC3CC(NCCN)CNC(=O)C4C(O)C(C)CN4C(=O)C(CO)NC(=O)C(C(O)Cc4ccc(O)cc4)NC(=O)C4CC(O)CN4C(=O)C(C(C)O)NC3=O)cc2)cc1.O=C(O)C(F)(F)F (single isomer, unassigned; isomer a) [Example 14, Trifluoroacetate of 1-[4-[(2-aminoethyl)amino]N2-[[4′-(octyloxy)[1.1′-biphenyl]-4-yl]carbonyl]-L-ornithine]4-[4-(4-hydroxyphenyl)-L-threonine]-5-L Serine Echinocandin B (Isomer A)] | good activity
(±) Trifluoroacetate of 1-[4-[(aminoiminomethyl) Hydrazono]-N2-(12-methyl-1-oxotetradecyl)-L-ornithine]4-[4-(4-hydroxyphenyl)-L-threonine]-5-L Serine Echinocandin B [Example 11] | good activity
